According to patent US9006173B2, “Microcystins as agents for treatment of cancer” (priority 2006, dated 2015):
Read-outs that look alike come from different tables or passages of the source. Numbered stars: 1 amine (or outer) side, 2 acyl side, 3 side chain; on linkers, the order of the positions; unused ones are H or OH. Bridge positions count the residues as written; N and C are the ends. Square brackets hold non-standard residues; d marks the D form. Peptide text beside a SMILES is read from it. Adda = CO[C@@H](Cc1ccccc1)[C@@H](C)/C=C(C)/C=C/[C@H](N[*:1])[C@H](C)C(=O)[*:2]; dAsp(3S-Me) = C[C@H](C(=O)[*:3])[C@@H](N[*:1])C(=O)[*:2]; d(γGlu) = O=C(O)[C@@H](CCC(=O)[*:2])N[*:1]; NMeDha = C=C(NC)C(=O)O

Experiments:
[1] = tested on: pIRESneo2 (control plasmid) transfected HeLa cells; assay: cells; assay type: cell-based
[2] = tested on: total phosphatase activity in OATP1B3-transfected HeLa cells; assay type: cell-based
[3] = tested on: OATP1B3-transfected HeLa cells
[4] = tested on: HeLa cells transfected with pIRESneo2; assay type: cell-based
[5] = tested on: total phosphatase activity in OATP1B1-transfected HeLa cells; assay type: cell-based
[6] = tested on: OATP1B1 transfected HeLa cells; assay type: cell-based
[7] = tested on: pIRESneo2 transfected HeLa cells; assay type: cell-based
[8] = tested on: OATP1B1-expressing HeLa xenografts; parameters: species or system athymic nude mice; conditions: mouse, in vivo, ip
[9] = parameters: species or system athymic nude mice; conditions: mouse, in vivo, ip
[10] = tested on: OATP1B1-transfected HeLa cells
[11] = mouse, in vivo; cited from earlier work
PP1 = PP1 (Homo sapiens, UniProt P62136); conditions: read-out: Reported Ki PP1; cited from earlier work
PP2A = PP2A (Homo sapiens, UniProt P67775); conditions: cited from earlier work
purified PP1 = purified PP1 (Oryctolagus cuniculus, UniProt P62139); assay: biochemical
purified PP2A = biological target: T1, purified PP2A (Homo sapiens, UniProt P67775); assay: biochemical; conditions: [33P]-MyBP substrate, 10 min pre-incubation, mean±SD; read-out: Enzyme Inhibition PP2A IC50
T1 construct: purchased Upstate Cell Signaling Solutions, NY

OATP1B1 = assay: in vitro; conditions: human
OATP1B3 = assay: in vitro; conditions: human
[12] = read-out: Growth Inhibition pIRESneo2 IC50
[13] = read-out: Growth Inhibition OATP1B3 IC50
[14] = read-out: Growth inhibition: toxicity not reached / no cytotoxicity up to stated concentration in control cells
[15] = read-out: Growth Inhibition OATP1B1 IC50

Sequence of PP2A (P67775 whole entry): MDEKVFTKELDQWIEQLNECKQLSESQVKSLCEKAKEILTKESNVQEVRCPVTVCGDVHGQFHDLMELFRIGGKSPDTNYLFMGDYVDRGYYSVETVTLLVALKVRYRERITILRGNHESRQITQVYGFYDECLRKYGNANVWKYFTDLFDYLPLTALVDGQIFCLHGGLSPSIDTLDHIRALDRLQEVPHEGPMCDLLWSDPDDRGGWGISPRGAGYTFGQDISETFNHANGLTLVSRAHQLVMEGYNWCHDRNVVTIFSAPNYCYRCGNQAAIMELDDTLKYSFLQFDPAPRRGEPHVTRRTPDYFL
T1 sequence (P67775 whole entry): as above
T1 sequence (P30153 2-589, further chain): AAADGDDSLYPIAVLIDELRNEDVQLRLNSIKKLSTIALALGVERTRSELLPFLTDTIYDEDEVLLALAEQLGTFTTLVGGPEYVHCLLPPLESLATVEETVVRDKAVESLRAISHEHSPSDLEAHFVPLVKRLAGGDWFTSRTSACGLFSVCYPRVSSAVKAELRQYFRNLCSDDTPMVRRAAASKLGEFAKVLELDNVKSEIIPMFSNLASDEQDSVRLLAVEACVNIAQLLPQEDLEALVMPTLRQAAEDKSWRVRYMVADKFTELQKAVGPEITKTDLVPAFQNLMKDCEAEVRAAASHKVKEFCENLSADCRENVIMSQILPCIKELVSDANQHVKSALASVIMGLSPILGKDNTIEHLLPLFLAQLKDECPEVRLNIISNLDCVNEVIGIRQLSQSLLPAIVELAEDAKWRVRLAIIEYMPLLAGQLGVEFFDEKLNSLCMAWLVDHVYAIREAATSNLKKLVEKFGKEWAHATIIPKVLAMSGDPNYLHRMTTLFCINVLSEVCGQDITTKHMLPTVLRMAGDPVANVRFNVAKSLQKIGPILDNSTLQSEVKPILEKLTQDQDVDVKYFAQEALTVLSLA
Sequence of purified PP1 (P62139 whole entry): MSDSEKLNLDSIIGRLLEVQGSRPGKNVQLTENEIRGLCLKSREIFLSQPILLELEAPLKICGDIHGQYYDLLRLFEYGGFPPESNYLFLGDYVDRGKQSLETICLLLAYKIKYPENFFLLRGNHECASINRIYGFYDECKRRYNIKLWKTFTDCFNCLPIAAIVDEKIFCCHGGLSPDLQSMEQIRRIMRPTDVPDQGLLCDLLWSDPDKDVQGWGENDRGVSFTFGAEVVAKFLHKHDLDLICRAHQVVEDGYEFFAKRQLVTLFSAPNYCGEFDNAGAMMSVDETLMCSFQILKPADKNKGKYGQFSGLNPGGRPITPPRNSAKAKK
Sequence of PP1 (P62136 whole entry): as the sequence (P62139 whole entry) above

In the case of `C=C1C(=O)N[C@H](C)C(=O)N[C@@H](CC(C)C)C(=O)N[C@@H](C(=O)O)[C@H](C)C(=O)N[C@@H](Cc2ccccc2)C(=O)N[C@@H](/C=C/C(C)=C/[C@H](C)[C@H](Cc2ccccc2)OC)[C@H](C)C(=O)N[C@@H](C(=O)O)CCC(=O)N1C` [Microcystin LF, microcystin LF] (F[Adda][d(γGlu)][NMeDha][dA]L[dAsp(3S-Me)]-OH; lactam N-7), the IC50 [1, 12] is reported as > 1000 nM, the “Effect on total phosphatase activity” value [2] is reported as “no discernable effect” and the IC50 [3, 13] is reported as 0.9 ± 0.9 nM.
In the case of `C=C1C(=O)N[C@H](C)C(=O)N[C@@H](CC(C)C)C(=O)N[C@@H](C(=O)O)[C@H](C)C(=O)N[C@@H](CCCNC(=N)N)C(=O)N[C@@H](/C=C/C(C)=C/[C@H](C)[C@H](Cc2ccccc2)OC)[C@H](C)C(=O)N[C@@H](C(=O)O)CCC(=O)N1C` [Microcystin LR, microcystin LR] (R[Adda][d(γGlu)][NMeDha][dA]L[dAsp(3S-Me)]-OH; lactam N-7), the IC50 [1, 12] is reported as > 10000 nM, the IC50 [1, 14] is reported as > 10000 nM and the “Clonogenic assay toxicity in vector alone cells” value [4] is reported as “no toxicity”. For the same compound, the “Decrease of total phosphatase activity” value [5] was “approximately 30%”, the “Cell and nuclear morphology changes” value [6] was “membrane blebbing” and the “Cell and nuclear morphology changes” value [7] was “no changes in cellular morphology”. For the same compound, the “Average tumor volume, % of control” value [8] was 49 % of control, the “Body weight day 0, daily cohort” value [9] was 22.8±2.7 grams and the “Body weight day 0, every other day cohort” value [9] was 21.6±0.8 grams. The “Body weight day 18, daily cohort” value [9] was 19.0±1.2 grams, the “Body weight day 18, every other day cohort” value [9] was 22.3±2.4 grams and the “Growth inhibition activity after 1 hour exposure” value [10] was “less active”. For the same compound, the IC50 [10, 15] was 5 nM, the IC50 ([10]; read-out: Growth inhibition IC50 in presence of BSP, OATP1B1) was ~5000 nM and the IC50 [3, 13] was 39 nM. The IC50 ([3]; read-out: Growth inhibition IC50 in presence of BSP, OATP1B3) was ~5000 nM, the “Share of total dose accumulating in the liver” value [11] was 70% and the Ki (PP1) was 0.06 to 6 nM. The Ki (PP2A; read-out: Reported Ki PP2A) was 0.01 to 2 nM.
In the case of `C=C1C(=O)N[C@H](C)C(=O)N[C@@H](CC(C)C)C(=O)N[C@@H](C(=O)O)[C@H](C)C(=O)N[C@@H](Cc2c[nH]c3ccccc23)C(=O)N[C@@H](/C=C/C(C)=C/[C@H](C)[C@H](Cc2ccccc2)OC)[C@H](C)C(=O)N[C@@H](C(=O)O)CCC(=O)N1C` [Microcystin LW, microcystin LW] (W[Adda][d(γGlu)][NMeDha][dA]L[dAsp(3S-Me)]-OH; lactam N-7), the IC50 [1, 12] is reported as > 1000 nM, the “Effect on total phosphatase activity” value [2] is reported as “no discernable effect” and the IC50 [3, 13] is reported as 0.5 ± 0.4 nM.
For `C=C1C(=O)N[C@H](C)C(=O)N[C@@H](CCCNC(=N)N)C(=O)N[C@@H](C(=O)O)[C@H](C)C(=O)N[C@@H](CCCNC(=N)N)C(=O)N[C@@H](/C=C/C(C)=C/[C@H](C)[C@H](Cc2ccccc2)OC)[C@H](C)C(=O)N[C@@H](C(=O)O)CCC(=O)N1C` [Microcystin RR, microcystin RR] (R[Adda][d(γGlu)][NMeDha][dA]R[dAsp(3S-Me)]-OH; lactam N-7), the IC50 [1, 12] was > 10000 nM, the IC50 [1, 14] was > 10000 nM and the “Decrease of total phosphatase activity” value [2] was 90%. The IC50 ([10]; read-out: Growth inhibition IC50 OATP1B1) was 3800 ± 2300 nM and the IC50 ([3]; read-out: Growth inhibition IC50 OATP1B3) was 580 ± 400 nM.
In the case of `C=C1C(=O)N[C@H](C)C(=O)N[C@@H](Cc2ccc(O)cc2)C(=O)N[C@@H](C(=O)O)[C@H](C)C(=O)N[C@@H](CCCNC(=N)N)C(=O)N[C@@H](/C=C/C(C)=C/[C@H](C)[C@H](Cc2ccccc2)OC)[C@H](C)C(=O)N[C@@H](C(=O)O)CCC(=O)N1C` [Microcystin YR, microcystin YR] (R[Adda][d(γGlu)][NMeDha][dA]Y[dAsp(3S-Me)]-OH; lactam N-7), the IC50 [1, 12] is reported as > 1000 nM, the IC50 [10, 15] is reported as 90 ± 20 nM and the IC50 [3, 13] is reported as 45 ± 30 nM.
For `C=C1[C@@H](O)[C@@H]2O[C@]3(CC[C@H](/C=C/[C@@H](C)[C@@H]4CC(C)=C[C@@]5(O[C@H](C[C@@](C)(O)C(=O)O)CC[C@H]5O)O4)O3)CC[C@H]2O[C@@H]1[C@@H](O)C[C@H](C)[C@H]1O[C@@]2(CCCCO2)CC[C@H]1C` [Okadaic acid], the IC50 ([1]; Homo sapiens, HeLa, 72 h exposure, SRB dye assay, mean±SD, read-out: Growth Inhibition pIRESneo2 IC50) was 7.8 ± 1.5 nM, the IC50 (purified PP1) was 90 ± 17 nM and the IC50 (purified PP2A) was 0.4 ± 0.18 nM. The IC50 (PP2A; literature (18), read-out: Reported IC50 PP2A) was 15 to 70 nM, the IC50 (OATP1B1) was 2.2 ± 0.6 nM and the IC50 (OATP1B3) was 3 ± 1.2 nM.
